From patent publication US11319298B2 (Merck Sharp & Dohme Corp., priority 2016, dated 2022)

The compounds below were run against T1, human M4 muscarinic acetylcholine receptor (Homo sapiens, UniProt P08173) (assay: human FLIPR-based M4 PAM assay, CHO-K1 cells stably transfected with human M4 receptor and chimeric G-protein Gαqi5). Settings: inflection point (IP) of dose response curve; acetylcholine added at 20% of maximum response; CHO-K1 human M4/Gαqi5, FLIPR Tetra.
T1 construct: expressed in transfected cells; host or cells: CHO-K1
T1 sequence (P08173 1-479): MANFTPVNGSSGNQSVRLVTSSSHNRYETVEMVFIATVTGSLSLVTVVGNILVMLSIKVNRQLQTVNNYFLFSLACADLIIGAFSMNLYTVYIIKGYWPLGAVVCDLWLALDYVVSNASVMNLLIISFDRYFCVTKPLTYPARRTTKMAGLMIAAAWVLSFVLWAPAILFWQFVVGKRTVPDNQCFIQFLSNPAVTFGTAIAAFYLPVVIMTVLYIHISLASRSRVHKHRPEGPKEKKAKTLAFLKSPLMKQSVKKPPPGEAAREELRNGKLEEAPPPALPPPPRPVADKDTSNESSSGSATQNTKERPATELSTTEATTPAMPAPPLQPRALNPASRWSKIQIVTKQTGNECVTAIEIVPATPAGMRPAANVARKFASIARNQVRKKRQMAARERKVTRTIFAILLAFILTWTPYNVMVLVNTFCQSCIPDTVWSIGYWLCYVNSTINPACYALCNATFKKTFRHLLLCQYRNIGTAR
Type: cell-based
Procedure: In a typical experiment the M4 muscarinic acetylcholine receptor modulating activity of the compounds of the present invention was determined in accordance with the following experimental method. CHO-K1 cells stably transfected with human M4 receptor and chimeric G-protein Gαqi5 (Coward P, et al., Analytical Biochemistry, 270:242-248 (1999)) are thawed from liquid N2 storage, resuspended in growth medium, plated in black, clear bottom 384 well plates, and incubated 16-20 hours at 37° C., 5% CO2. On the day of assay, growth medium is removed, the cells are washed 2 times with wash buffer, and cells are incubated in dye loading buffer at 37° C., 5% CO2 for ˜1 hour. Following dye loading the cell plates are placed in a FLIPR Tetra instrument and while monitoring dye fluorescence (excitation […]), 10 uL of test substance at increasing concentrations is added, and fluorescence values are recorded for 4 min. Next, 10 uL of acetylcholine is added (final concentration calculated so as to achieve 20% of the maximum acetycholine response), and the fluorescence reading is continued for 3.5 min. In some cases, a third addition of acetylcholine (final concentration calculated to achieve 70% of the maximal acetylcholine response) is performed. The resulting dose response curves are fit to a 4 parameter logistic equation and the final result is determined as the inflection point (IP) of the curve
CHO-K1 cells stably transfected with human M4 receptor and chimeric G-protein Gαqi5 are thawed from liquid N2 storage, resuspended in growth medium, plated in black, clear bottom 384 well plates, and incubated 16-20 hours at 37° C., 5% CO2.
On the day of assay, growth medium is removed, the cells are washed 2 times with wash buffer, and cells are incubated in dye loading buffer at 37° C., 5% CO2 for ˜1 h. Following dye loading the cell plates are placed in a FLIPR Tetra instrument and while monitoring dye fluorescence ([…]), 10 uL of test substance at increasing concentrations is added, and fluorescence values are recorded for 4 min. Next, 10 uL of acetylcholine is added (final concentration calculated so as to achieve 20% of the maximum acetycholine response), and the fluorescence reading is continued for 3.5 min. In some cases, a third addition of acetylcholine (final concentration calculated to achieve 70% of the maximal acetylcholine response) is performed.

First: COc1ccc(OC2CCN(c3nnc(C(=O)NC4CCCc5ccccc54)cc3C)CC2)cn1 (stereo not shown) [Example 200, 6-{4-[(6-methoxypyridin-3-yl)oxy]piperidin-1-yl}-5-methyl-N-(1,2,3,4-tetrahydronaphthalen-1-yl)pyridazine-3-carboxamide]
Second: COc1ccc(OC2CCN(c3nnc(C(=O)NC4Cc5ccccc5C4)cc3C)CC2)cn1 [Example 177, N-(2,3-dihydro-1H-inden-2-yl)-6-{4-[(6-methoxypyridin-3-yl)oxy]piperidin-1-yl}-5-methylpyridazine-3-carboxamide]
The EC50 of the first is 3.2-fold lower: 0.218 µM for the first, 0.693 µM for the second. The first is the more potent here.

`COc1ccc(OC2CCN(c3ncnc(N4C[C@H](F)[C@@H](F)C4)c3C)CC2)cn1` [Example 230, 4-((3S,4S)-3,4-difluoropyrrolidin-1-yl)-6-(4-((6-methoxypyridin-3-yl)oxy)piperidin-1-yl)-5-methylpyrimidine] and `CCCc1ncnc(N2CCC(Oc3ccc(OC)nc3)CC2)c1C` [Example 248, 4-(4-((6-methoxypyridin-3-yl)oxy)piperidin-1-yl)-5-methyl-6-propylpyrimidine] are within 1.5-fold of each other in EC50: 1.04 µM for the first, 1.55 µM for the second.

First: Cc1c(Cl)nc(CO)nc1N1CCC(Oc2ccc3ccc(=O)oc3c2)CC1 [Example 2, 7-((1-(6-chloro-2-(hydroxymethyl)-5-methylpyrimidin-4-yl)piperidin-4-yl)oxy)-2H-chromen-2-one]
Second: Cc1c(Cl)nc(CO)nc1N1CCC(Oc2ccc3c(c2)C(=O)NC3)CC1 [Example 98, 6-((1-(6-chloro-2-(hydroxymethyl)-5-methylpyrimidin-4-yl)piperidin-4-yl)oxy)isoindolin-1-one]
The EC50 of the first is 2.3-fold higher: 0.427 µM for the first, 0.184 µM for the second.

First: COc1ccc(OC2CCN(c3nc(C(=O)NC(C)C)nc(Cl)c3C)CC2)cn1 [Example 213, 4-chloro-N-isopropyl-6-(4-((6-methoxypyridin-3-yl)oxy)piperidin-1-yl)-5-methylpyrimidine-2-carboxamide]
Second: COc1ccc(OC2CCN(c3nc(C)nc(Cl)c3C)CC2)cn1 [Example 1, 4-Chloro-6-(4-((6-methoxypyridin-3-yl)oxy)piperidin-1-yl)-2,5-dimethylpyrimidine]
The EC50 of the first is 3.8-fold higher: 0.729 µM for the first, 0.191 µM for the second.

`COc1ccc(O[C@@H]2CCN(c3nnc(C(=O)N[C@H]4CCc5ncccc5C4)cc3C)C[C@@H]2F)cn1` [Example 138A, 6-((3S,4R)-3-fluoro-4-((6-methoxypyridin-3-yl)oxy)piperidin-1-yl)-5-methyl-N-((S)-5,6,7,8-tetrahydroquinolin-6-yl)pyridazine-3-carboxamide] and `COc1ccc(OC2CCN(c3nnc(C(=O)N[C@H]4CCc5cccnc5C4)cc3C)CC2)cn1` [Example 126B, (S)-6-{4-[(6-methoxypyridin-3-yl)oxy]piperidin-1-yl}-5-methyl-N-(5,6,7,8-tetrahydroquinolin-7-yl)pyridazine-3-carboxamide] are within 1.5-fold of each other in EC50: 0.177 µM for the first, 0.159 µM for the second.

`Cc1c(Cl)nc(CO)nc1N1CCC(Oc2ccc3nn(C)cc3c2)CC1` [Example 63] and `COc1ccc(OC2CCN(c3nc(CO)nc(Cl)c3C)CC2)cn1` [Example 68, (4-chloro-6-(4-((6-methoxypyridin-3-yl)oxy)piperidin-1-yl)-5-methylpyrimidin-2-yl)methanol] are within 1.5-fold of each other in EC50: 0.099 µM for the first, 0.126 µM for the second.

Going from `Cc1cc(C(=O)NC2CCc3ncccc3C2)nnc1N1CCC(OCC2CC2)CC1` (stereo not shown) [Example 133, 6-[4-(cyclopropylmethoxy)piperidin-1-yl]-5-methyl-N-(5,6,7,8-tetrahydroquinolin-6-yl)pyridazine-3-carboxamide] to `Cc1cc(C(=O)NC2CCc3cccnc3C2)nnc1N1CCC(Oc2cccc(C#N)c2)CC1` (stereo not shown) [Example 160, 6-[4-(3-cyanophenoxy)piperidin-1-yl]-5-methyl-N-(5,6,7,8-tetrahydroquinolin-7-yl)pyridazine-3-carboxamide], the EC50 rises from 0.142 µM to 0.295 µM (2.1-fold).

Going from `Cc1ccc(OC2CCN(c3nnc(C(=O)NCc4ccncc4)cc3C)CC2)cc1Cl` [Example 156, 6-[4-(3-chloro-4-methylphenoxy)piperidin-1-yl]-5-methyl-N-(pyridin-4-ylmethyl)pyridazine-3-carboxamide] to `COc1ccc(OC2CCN(c3nnc(C(=O)NCc4ccc(S(C)(=O)=O)cc4)cc3C)CC2)cn1` [Example 174, 6-{4-[(6-methoxypyridin-3-yl)oxy]piperidin-1-yl}-5-methyl-N-[4-(methylsulfonyl)benzyl]pyridazine-3-carboxamide], the EC50 rises from 0.272 µM to 0.563 µM (2.1-fold). The first is the more potent here.

Compared with `Cc1c(Cl)nc(CO)nc1N1CCC(Oc2ccc3c(c2)OCCN3)CC1` [Example 96, (4-Chloro-6-(4-((3,4-dihydro-2H-benzo[b][1,4]oxazin-7-yl)oxy)piperidin-1-yl)-5-methylpyrimidin-2-yl)methanol], `Cc1c(Cl)nc(CO)nc1N1CC[C@@H](Oc2ccc3c(cnn3C)c2)[C@@H](F)C1` (relative stereo) [Example 25, (4-chloro-6-((cis)-3-fluoro-4-((1-methyl-1H-indazol-5-yl)oxy)piperidin-1-yl)-5-methylpyrimidin-2-yl)methanol] is 2.1-fold higher in EC50: 0.037 µM for the first, 0.078 µM for the second.

`COc1ccc(OC2CCN(c3nnc(C(=O)N[C@H]4CCc5cc(F)ccc5C4)cc3C)CC2)cn1` [Example 184A, (S)-N-(6-fluoro-1,2,3,4-tetrahydronaphthalen-2-yl)-6-{4-[(6-methoxypyridin-3-yl)oxy]piperidin-1-yl}-5-methylpyridazine-3-carboxamide] and `COc1ccc(OC2CCN(c3nnc(C(=O)NC4CCc5cccnc54)cc3C)CC2)cn1` (stereo not shown) [Example 170, N-(6,7-dihdyro-5H-cyclopenta[b]pyridin-7-yl)-6-{4-[(6-methoxypyridin-3-yl)oxy]piperidin-1-yl}-5-methylpyridazine-3-carboxamide] are within 1.5-fold of each other in EC50: 0.427 µM for the first, 0.465 µM for the second.

Compared with `COc1ccc(OC2CCN(c3nnc(C(=O)NCc4ccccc4C#N)cc3C)CC2)cn1` [Example 178, N-(2-cyanobenzyl)-6-{4-[(6-methoxypyridin-3-yl)oxy]piperidin-1-yl}-5-methylpyridazine-3-carboxamide], `CONC(=O)c1cc(C)c(N2CCC(Oc3cccc(C#N)c3)CC2)nn1` [Example 132, 6-[4-(3-cyanophenoxy)piperidin-1-yl]-N-methoxy-5-methypyridazine-3-carboxamide] is 5.2-fold lower in EC50: 0.724 µM for the first, 0.139 µM for the second.

`COc1ncc(OC2CCN(c3nc(C)ncc3C)CC2)cc1F` [Example 74, 4-(4-((5-fluoro-6-methoxypyridin-3-yl)oxy)piperidin-1-yl)-2,5-dimethylpyrimidine] and `COc1ccc(OC2CCN(c3nnc(-c4nc(C)no4)cc3C)CC2)cn1` [Example 28, 5-(6-(4-((6-methoxypyridin-3-yl)oxy)piperidin-1-yl)-5-methylpyridazin-3-yl)-3-methyl-1,2,4-oxadiazole] are within 1.5-fold of each other in EC50: 0.155 µM for the first, 0.119 µM for the second.

First: Cc1cc(C(=O)NCc2ccncc2)nnc1N1CC[C@@H](Oc2cccc(C#N)c2)[C@@H](F)C1 [Example 115, 6-[(3S,4R)-4-(3-cyanophenoxy)-3-fluoropiperidin-1-yl]-5-methyl-N-(pyridin-4-ylmethyl)pyridazine-3-carboxamide]
Second: Cc1cc(C(=O)NC2CCc3ccccc3C2)nnc1N1CCC(Oc2cccc(C#N)c2)CC1 (stereo not shown) [Example 201, 6-[4-(3-cyanophenoxy)piperidin-1-yl]-5-methyl-N-(1,2,3,4-tetrahydronaphthalen-2-yl)pyridazine-3-carboxamide]
The EC50 of the first is 4.5-fold lower: 0.061 µM for the first, 0.272 µM for the second.

First: COc1ccc(OC2CCN(c3nc(C(=O)N[C@@H]4CCCc5ccccc54)nc(Cl)c3C)CC2)cn1 [Example 223, (R)-4-chloro-6-(4-((6-methoxypyridin-3-yl)oxy)piperidin-1-yl)-5-methyl-N-(1,2,3,4-tetrahydronaphthalen-1-yl)pyrimidine-2-carboxamide]
Second: COc1ccc(OC2CCN(c3ncnc(-c4ccc(F)nc4)c3C)CC2)cn1 [Example 246, 4-(6-fluoropyridin-3-yl)-6-(4-((6-methoxypyridin-3-yl)oxy)piperidin-1-yl)-5-methylpyrimidine]
The EC50 of the first is 5.4-fold higher: 3.41 µM for the first, 0.633 µM for the second.
